In ChEMBL document CHEMBL4715864, “Discovery of 2-(5-(quinolin-6-yl)-1,3,4-oxadiazol-2-yl)acetamide derivatives as novel PI3Kα inhibitors via docking-based virtual screening” (Bioorg Med Chem, 2021):

Tests used:
[1] = target: T1, Phosphatidylinositol 4,5-bisphosphate 3-kinase catalytic subunit delta isoform (Homo sapiens, UniProt O00329); assay: Inhibition of PI3Kdelta (unknown origin) using PIP2 as substrate measured after 1 hr by ADP-glo plus luminescence assay
T1 sequence (O00329 whole entry): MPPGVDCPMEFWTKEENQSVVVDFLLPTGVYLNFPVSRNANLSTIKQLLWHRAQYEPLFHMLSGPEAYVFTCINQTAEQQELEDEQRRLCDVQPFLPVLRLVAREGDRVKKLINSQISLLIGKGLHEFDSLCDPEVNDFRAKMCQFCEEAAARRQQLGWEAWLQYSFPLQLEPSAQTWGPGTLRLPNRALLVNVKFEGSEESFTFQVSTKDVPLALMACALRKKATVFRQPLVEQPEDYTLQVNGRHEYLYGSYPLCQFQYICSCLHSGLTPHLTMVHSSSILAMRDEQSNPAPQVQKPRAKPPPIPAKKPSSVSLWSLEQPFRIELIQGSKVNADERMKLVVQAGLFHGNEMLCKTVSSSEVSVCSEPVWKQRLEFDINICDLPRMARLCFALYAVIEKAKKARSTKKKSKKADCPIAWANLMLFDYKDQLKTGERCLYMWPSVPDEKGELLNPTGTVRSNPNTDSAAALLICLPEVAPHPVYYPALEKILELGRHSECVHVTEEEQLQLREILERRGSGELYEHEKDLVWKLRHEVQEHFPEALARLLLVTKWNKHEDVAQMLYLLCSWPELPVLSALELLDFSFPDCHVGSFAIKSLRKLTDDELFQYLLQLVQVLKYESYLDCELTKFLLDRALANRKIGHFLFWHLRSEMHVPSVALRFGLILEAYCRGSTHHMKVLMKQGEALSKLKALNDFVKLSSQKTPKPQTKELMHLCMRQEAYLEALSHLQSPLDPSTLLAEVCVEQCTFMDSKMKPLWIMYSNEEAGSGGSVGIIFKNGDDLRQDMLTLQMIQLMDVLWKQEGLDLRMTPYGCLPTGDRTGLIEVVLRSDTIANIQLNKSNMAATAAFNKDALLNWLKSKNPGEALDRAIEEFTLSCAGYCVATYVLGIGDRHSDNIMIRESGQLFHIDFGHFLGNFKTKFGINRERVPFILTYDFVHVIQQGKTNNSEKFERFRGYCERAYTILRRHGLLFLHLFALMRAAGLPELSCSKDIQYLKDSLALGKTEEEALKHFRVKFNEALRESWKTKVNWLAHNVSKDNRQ

[2] = target: T2, Phosphatidylinositol 4,5-bisphosphate 3-kinase catalytic subunit alpha isoform (Homo sapiens, UniProt P42336); assay: Inhibition of PI3Kalpha (unknown origin) using PIP2 as substrate measured after 1 hr by ADP-glo plus luminescence assay
T2 sequence (P42336 whole entry, canonical isoform): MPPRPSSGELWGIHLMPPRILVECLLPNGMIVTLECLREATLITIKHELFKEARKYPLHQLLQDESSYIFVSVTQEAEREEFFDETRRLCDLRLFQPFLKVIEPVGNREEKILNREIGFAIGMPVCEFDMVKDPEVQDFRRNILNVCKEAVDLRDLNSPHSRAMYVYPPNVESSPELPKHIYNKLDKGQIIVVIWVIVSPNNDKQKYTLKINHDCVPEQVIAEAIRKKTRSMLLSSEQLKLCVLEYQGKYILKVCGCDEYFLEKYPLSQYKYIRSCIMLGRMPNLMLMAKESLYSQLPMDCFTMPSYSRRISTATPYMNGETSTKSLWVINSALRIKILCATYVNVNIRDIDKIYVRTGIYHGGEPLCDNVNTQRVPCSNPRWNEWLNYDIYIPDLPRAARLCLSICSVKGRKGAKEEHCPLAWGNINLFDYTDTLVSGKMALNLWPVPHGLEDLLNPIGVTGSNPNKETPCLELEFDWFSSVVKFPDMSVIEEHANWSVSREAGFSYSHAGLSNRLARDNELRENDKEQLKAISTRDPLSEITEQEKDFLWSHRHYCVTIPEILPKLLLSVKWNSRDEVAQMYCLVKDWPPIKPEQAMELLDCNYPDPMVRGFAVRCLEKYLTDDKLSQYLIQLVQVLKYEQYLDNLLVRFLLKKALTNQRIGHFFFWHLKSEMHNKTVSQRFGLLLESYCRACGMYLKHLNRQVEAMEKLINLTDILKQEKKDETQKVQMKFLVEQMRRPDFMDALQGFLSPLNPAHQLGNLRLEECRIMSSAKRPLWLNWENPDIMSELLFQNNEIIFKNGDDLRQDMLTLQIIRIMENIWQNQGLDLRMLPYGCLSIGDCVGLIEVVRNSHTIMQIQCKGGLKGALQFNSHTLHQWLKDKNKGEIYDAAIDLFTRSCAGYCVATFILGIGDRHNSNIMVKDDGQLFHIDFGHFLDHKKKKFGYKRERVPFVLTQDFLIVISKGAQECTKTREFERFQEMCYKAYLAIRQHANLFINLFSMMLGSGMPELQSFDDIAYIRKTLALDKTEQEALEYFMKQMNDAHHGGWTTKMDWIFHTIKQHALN

[3] = target: Phosphatidylinositol 4,5-bisphosphate 3-kinase catalytic subunit gamma isoform (Homo sapiens, UniProt P48736); assay: Inhibition of PI3Kgamma (unknown origin) using PIP2 as substrate measured after 1 hr by ADP-glo plus luminescence assay
Chain of Phosphatidylinositol 4,5-bisphosphate 3-kinase catalytic subunit gamma isoform (P48736 whole entry, canonical isoform): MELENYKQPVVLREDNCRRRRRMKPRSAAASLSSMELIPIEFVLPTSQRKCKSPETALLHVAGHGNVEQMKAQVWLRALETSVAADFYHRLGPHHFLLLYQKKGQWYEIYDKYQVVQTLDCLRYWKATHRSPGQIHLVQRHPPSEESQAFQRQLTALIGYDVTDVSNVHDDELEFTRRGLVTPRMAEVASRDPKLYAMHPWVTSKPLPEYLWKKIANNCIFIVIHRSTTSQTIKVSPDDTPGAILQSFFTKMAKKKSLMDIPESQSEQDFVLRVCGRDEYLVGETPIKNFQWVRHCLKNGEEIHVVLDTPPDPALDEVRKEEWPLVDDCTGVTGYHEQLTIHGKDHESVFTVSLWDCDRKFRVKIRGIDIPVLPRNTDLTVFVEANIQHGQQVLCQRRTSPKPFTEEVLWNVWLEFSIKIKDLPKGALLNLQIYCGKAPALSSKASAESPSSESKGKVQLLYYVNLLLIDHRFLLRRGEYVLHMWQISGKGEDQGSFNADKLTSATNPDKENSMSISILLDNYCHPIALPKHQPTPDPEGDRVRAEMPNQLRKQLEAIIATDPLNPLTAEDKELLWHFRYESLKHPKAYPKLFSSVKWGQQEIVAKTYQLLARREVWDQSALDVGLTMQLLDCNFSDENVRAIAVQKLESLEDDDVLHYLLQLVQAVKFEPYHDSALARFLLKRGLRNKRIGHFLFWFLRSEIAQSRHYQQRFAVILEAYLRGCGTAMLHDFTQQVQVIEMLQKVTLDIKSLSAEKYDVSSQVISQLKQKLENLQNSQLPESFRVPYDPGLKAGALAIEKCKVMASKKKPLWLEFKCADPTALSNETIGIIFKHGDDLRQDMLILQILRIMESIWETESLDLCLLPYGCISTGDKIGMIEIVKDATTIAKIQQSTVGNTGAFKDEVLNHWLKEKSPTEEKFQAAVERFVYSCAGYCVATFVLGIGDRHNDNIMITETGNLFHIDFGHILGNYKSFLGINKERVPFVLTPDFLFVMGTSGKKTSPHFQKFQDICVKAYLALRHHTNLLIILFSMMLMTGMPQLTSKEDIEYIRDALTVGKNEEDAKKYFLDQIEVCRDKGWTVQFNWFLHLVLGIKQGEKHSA

[4] = target: Phosphatidylinositol 4,5-bisphosphate 3-kinase catalytic subunit beta isoform (Homo sapiens, UniProt P42338); assay: Inhibition of PI3Kbeta (unknown origin) using PIP2 as substrate measured after 1 hr by ADP-glo plus luminescence assay
Chain of Phosphatidylinositol 4,5-bisphosphate 3-kinase catalytic subunit beta isoform (P42338 whole entry, canonical isoform): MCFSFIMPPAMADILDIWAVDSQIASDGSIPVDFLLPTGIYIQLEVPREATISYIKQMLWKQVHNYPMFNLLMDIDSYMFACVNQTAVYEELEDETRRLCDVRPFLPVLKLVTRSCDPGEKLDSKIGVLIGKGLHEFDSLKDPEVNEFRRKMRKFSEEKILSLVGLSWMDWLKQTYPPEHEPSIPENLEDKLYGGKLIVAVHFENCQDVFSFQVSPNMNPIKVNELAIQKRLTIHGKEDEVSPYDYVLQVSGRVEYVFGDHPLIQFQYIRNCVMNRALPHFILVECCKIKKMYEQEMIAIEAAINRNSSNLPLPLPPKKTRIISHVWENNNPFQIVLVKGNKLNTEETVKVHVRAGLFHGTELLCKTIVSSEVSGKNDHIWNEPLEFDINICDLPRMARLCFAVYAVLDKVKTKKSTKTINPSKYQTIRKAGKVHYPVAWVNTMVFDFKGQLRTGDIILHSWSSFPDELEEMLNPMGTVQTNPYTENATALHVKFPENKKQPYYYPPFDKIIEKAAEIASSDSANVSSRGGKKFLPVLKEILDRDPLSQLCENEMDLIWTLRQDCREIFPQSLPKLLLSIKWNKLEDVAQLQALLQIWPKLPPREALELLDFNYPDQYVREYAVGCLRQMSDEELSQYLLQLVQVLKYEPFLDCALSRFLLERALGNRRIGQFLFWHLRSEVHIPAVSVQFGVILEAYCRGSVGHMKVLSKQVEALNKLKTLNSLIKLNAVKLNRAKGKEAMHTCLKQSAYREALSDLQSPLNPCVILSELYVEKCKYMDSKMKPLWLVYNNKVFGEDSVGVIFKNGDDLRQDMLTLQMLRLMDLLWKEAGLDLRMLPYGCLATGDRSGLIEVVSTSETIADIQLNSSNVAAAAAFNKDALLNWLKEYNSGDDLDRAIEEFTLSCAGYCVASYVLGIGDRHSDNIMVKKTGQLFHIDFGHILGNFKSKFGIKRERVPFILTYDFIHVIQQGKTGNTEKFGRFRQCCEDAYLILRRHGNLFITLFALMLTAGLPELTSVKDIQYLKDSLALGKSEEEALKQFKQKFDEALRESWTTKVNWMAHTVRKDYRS

[5] = target: T2, Phosphatidylinositol 4,5-bisphosphate 3-kinase catalytic subunit alpha isoform; assay: Inhibition of PI3Kalpha (unknown origin) assessed as inhibition rate using PIP2 as substrate at 10 uM measured after 1 hr by ADP-glo plus luminescence assay
Homo sapiens = organism: Homo sapiens; assay: Selectivity ratio of IC50 for PI3Kgamma (unknown origin) to IC50 for PI3Kalpha (unknown origin)

| Compound | IC50 [2] [µM] | further results |
| --- | --- | --- |
| O=C(Cc1nnc(-c2ccc3ncccc3c2)o1)NCCc1ccc(Cl)cc1 | 6.6 | IC50 [1]: 16.6 µM; IC50 [3]: 9.8 µM; IC50 [4]: 2.6 µM |
| COc1ccc(NC(=O)Cc2nnc(-c3ccc4ncccc4c3)o2)cc1OC | > 200 | – |
| O=C(Cc1nnc(-c2ccc3ncccc3c2)o1)NCc1ccc(F)cc1Cl | 15.6 | inhibition [5]: 55.5% |
| CC(C)NC(=O)CSc1nc(-c2ccc3c(c2)OCO3)nc2cc(=O)[nH]n12 | 17 | inhibition [5]: 71.9% |
| COc1ccc(CNC(=O)Cc2nnc(-c3ccc4ncccc4c3)o2)cc1OC | 7.6 | IC50 [1]: 14.2 µM; Ratio IC50 (Homo sapiens): 20; IC50 [3]: 152 µM; IC50 [4]: 4.1 µM |
| O=C(Cc1nnc(-c2ccc3ncccc3c2)o1)Nc1cccc(C(F)(F)F)c1 | > 200 | – |
| O=C(Cc1nnc(-c2ccc3ncccc3c2)o1)NCCc1ccccc1 | 29.2 | inhibition [5]: 73.8% |
| O=C(Cc1nnc(-c2ccc3c(c2)OCO3)o1)NCc1ccc(F)cc1 | > 200 | – |
| O=C(Cc1nnc(-c2ccccn2)o1)NCc1ccc(F)cc1Cl | > 200 | – |
| N#Cc1cc(NC(=O)Cc2nnc(-c3ccc4ncccc4c3)o2)ccc1F | > 200 | – |
| O=C(Cc1nnc(-c2ccc3ncccc3c2)o1)Nc1ccc(OC(F)(F)F)cc1 | > 200 | – |
| COc1ccccc1CNC(=O)Cc1nnc(-c2ccc3ncccc3c2)o1 | 18.3 | – |
| O=C(Cc1nnc(-c2ccc3ncccc3c2)o1)N1CCN(c2ccccc2)CC1 | > 200 | – |
